Experimental data as given in patent US9187411B2, “Leukotriene B4 antagonist compound” (Eli Lilly and Company, priority 2012, dated 2015).
pKi: −log10 of the molar value.

Molecular target: T1, PPARδ (Homo sapiens, UniProt Q03181)
T1 construct: made in house; host or cells: Sf9 insect cells (baculovirus), crude cell lysate
T1 sequence (Q03181 1-441): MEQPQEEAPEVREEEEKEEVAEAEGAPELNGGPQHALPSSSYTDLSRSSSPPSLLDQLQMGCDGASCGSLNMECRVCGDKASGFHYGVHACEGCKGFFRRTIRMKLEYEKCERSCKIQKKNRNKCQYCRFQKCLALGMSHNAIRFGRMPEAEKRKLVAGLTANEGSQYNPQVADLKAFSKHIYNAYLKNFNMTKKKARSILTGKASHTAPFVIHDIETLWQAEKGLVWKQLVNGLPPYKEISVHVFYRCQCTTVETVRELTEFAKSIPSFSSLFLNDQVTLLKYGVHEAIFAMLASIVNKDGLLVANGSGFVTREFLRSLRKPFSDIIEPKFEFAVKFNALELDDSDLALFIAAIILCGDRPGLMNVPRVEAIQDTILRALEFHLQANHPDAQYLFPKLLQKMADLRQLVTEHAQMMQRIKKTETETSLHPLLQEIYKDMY
T1 sequence (P19793 1-462 partner): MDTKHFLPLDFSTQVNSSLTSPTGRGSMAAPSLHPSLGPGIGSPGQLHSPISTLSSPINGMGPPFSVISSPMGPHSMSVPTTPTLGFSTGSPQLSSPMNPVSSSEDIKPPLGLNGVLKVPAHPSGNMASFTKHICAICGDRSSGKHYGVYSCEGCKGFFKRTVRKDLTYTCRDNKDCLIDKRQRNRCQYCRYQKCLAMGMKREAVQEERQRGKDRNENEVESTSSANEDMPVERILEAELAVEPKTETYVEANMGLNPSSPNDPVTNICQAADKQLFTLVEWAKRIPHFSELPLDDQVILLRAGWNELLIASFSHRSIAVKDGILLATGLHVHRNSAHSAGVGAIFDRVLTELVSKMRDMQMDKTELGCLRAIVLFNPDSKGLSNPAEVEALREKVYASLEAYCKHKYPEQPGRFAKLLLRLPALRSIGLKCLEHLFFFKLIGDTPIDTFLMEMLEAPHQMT
Assay: PPAR delta binding assay (SPA)
Conditions: tritiated GW2331, n=4, read-out: Ki PPAR δ binding
Excerpt: The nucleotide sequences encoding full-length PPARα receptor DNA (National Center for Biotechnology Information (NCBI) Reference Sequence NM_005036.4), PPARδ receptor DNA (NCBI Reference Sequence NM_006238.4), PPARγ receptor DNA (NCBI Reference Sequence NM_015869.4) and Retinoid X Receptor (RXR) α DNA (NCBI Reference Sequence NM_002957.4) are synthesized and inserted into pFastBacHTb (Invitrogen) vector in-framed with the N-terminal HIS tag from the vector. […] The protein concentration is determined by Bradford assay using BSA as the standard.
Binding Affinities of Compounds for the PPAR α, δ, γ Receptors are Assessed Using Scintillation Proximity Assay (SPA) Technology.
Biotinylated oligonucleotide(DR2) ^5′[…]^3′ (SEQ ID NO: 1) is used for binding of receptors to Yttrium silicate streptavidin-coated SPA beads (Perkin Elmer). The PPAR α, δ, γ and Retinoid X Receptor (RXR) α receptors (endogenously expressed as heterodimers) are cell lysates from Baculovirus expression systems in Sf9 cells. […] Non-specific binding is determined in the presence of 10000 nM unlabeled GW2331 (Kliewer, S. A. et al Proc. Natl. Acad. Sci. USA (1997), 94: 4318-4323) for the alpha and delta receptors and 2-methyl-2-[4-[3-[propyl[(5-pyridin-2-ylthiophen-2-yl)sulfonyl]amino]-propyl]phenoxy]propanoic (WO 2004/073606) for the gamma receptor. […]

## CCCc1c(NC(=O)CC(C)(C)C(=O)[O-])cccc1OCCCOc1cc(O)c(-c2ccc(F)cc2)cc1CC.[Na+] [Example 2, Sodium 4-[[3-[3-[2-ethyl-4-(4-fluorophenyl)-5-hydroxy-phenoxy]propoxy]-2-propyl-phenyl]amino]-2,2-dimethyl-4-oxo-butanoate]
  pKi: < 5.05
